Like-named read-outs stand apart in the source and are kept apart here.
Legend:
[1] = test system: breast cancer cell line MCF-7; assay: IC50 values on breast cancer cell line MCF-7; assay type: cell-based; settings: Homo sapiens
Description: From the activity evaluation data of the above-mentioned preliminary screen, it can be seen that the series of taxanes derivatives synthesized in the present invention have activity (although the activity of PCMI-43 is weakened). Afterward, most of the compounds are picked up from these derivatives to examine their IC50 values on breast cancer cell line MCF-7. Paclitaxel is used as the positive control drug. Experiments for each compound were independently repeated for three times and multiple holes were used in each experiment. The exposure time of drugs was 72 hours.

[2] = test system: Caco-2 cell monolayer; assay: Caco-2 cell monolayer membrane transport assay; settings: Caco-2 cell line (21 days); for Papp B-A / Papp A-B: bidirectional transport, Table 5; for efflux ratio: Papp B-A/Papp A-B
Description: (§3) Caco-2 Cell Monolayer Membrane Transport Assay
(§4) Human-derived colorectal adenocarcinoma cell line Caco-2 cell monolayer model was used to study the bidirectional transport of the target compounds from the apical (AP) side to the basolateral (BL) side and from BL side to AP side. HPLC was used for quantitative analysis to calculate transport parameters, apparent permeability coefficient (Papp) and the efflux ratio.

[3] = Caco-2 cell monolayer membrane transport assay; settings: human; for Papp A→B: Caco-2, Papp A-B; for recovery: Caco-2, Recovery rate in mass
Description: as §3, §4

[4] = test system: MDA-MB-436 breast cancer; assay: MTT assay, proliferation inhibition; assay type: cell-based; settings: Homo sapiens, read-out: Proliferation inhibition rate
Description: (§1) 1. Cytotoxicity Assay Using Human Tumor Cell Lines
(§2) Paclitaxel was used as the positive drug.

[5] = test system: DU145 prostate cancer; assay: MTT assay, proliferation inhibition; assay type: cell-based; settings: Homo sapiens, DU-145, read-out: Proliferation inhibition rate
Description: as §1, §2

[6] = test system: LNCaP prostate cancer; assay: MTT assay, proliferation inhibition; assay type: cell-based; settings: Homo sapiens, read-out: Proliferation inhibition rate
Description: as §1, §2

[7] = test system: BGC-823 gastric cancer; assay: MTT assay, proliferation inhibition; assay type: cell-based; settings: Homo sapiens, read-out: Proliferation inhibition rate
Description: as §1, §2

[8] = test system: HL60 leukemia; assay: MTT assay, proliferation inhibition; assay type: cell-based; settings: Homo sapiens, HL-60, read-out: Proliferation inhibition rate
Description: as §1, §2

[9] = test system: MCF-7 breast cancer; assay: MTT assay, proliferation inhibition; assay type: cell-based; settings: Homo sapiens, MCF7, read-out: Proliferation inhibition rate
Description: as §1, §2

[10] = test system: A2780 ovarian cancer; assay: MTT assay, proliferation inhibition; assay type: cell-based; settings: Homo sapiens, read-out: Proliferation inhibition rate
Description: as §1, §2

[11] = test system: HCT 116 colon cancer; assay: MTT assay, proliferation inhibition; assay type: cell-based; settings: Homo sapiens, read-out: Proliferation inhibition rate
Description: as §1, §2

[12] = test system: HeLa cervical cancer; assay: MTT assay, proliferation inhibition; assay type: cell-based; settings: Homo sapiens, read-out: Proliferation inhibition rate
Description: as §1, §2

[13] = test system: HT29 colon cancer; assay: MTT assay, proliferation inhibition; assay type: cell-based; settings: Homo sapiens, HT-29, read-out: Proliferation inhibition rate
Description: as §1, §2

[14] = test system: K562 leukemia; assay: MTT assay, proliferation inhibition; assay type: cell-based; settings: Homo sapiens, read-out: Proliferation inhibition rate
Description: as §1, §2

[15] = MTT assay, proliferation inhibition; assay type: cell-based; settings: Homo sapiens, LN-18 gastric cancer, read-out: Proliferation inhibition rate
Description: as §1, §2

[16] = test system: A549 non-small cell lung cancer; assay: MTT assay, proliferation inhibition; assay type: cell-based; settings: Homo sapiens, read-out: Proliferation inhibition rate
Description: as §1, §2

[17] = test system: NCI-H460 non-small cell lung cancer; assay: MTT assay, proliferation inhibition; assay type: cell-based; settings: Homo sapiens, read-out: Proliferation inhibition rate
Description: as §1, §2

[18] = test system: A375 melanoma; assay: MTT assay, proliferation inhibition; assay type: cell-based; settings: Homo sapiens, A-375, read-out: Proliferation inhibition rate
Description: as §1, §2

[19] = test system: B16 melanoma; assay: MTT assay, proliferation inhibition; assay type: cell-based; settings: read-out: Proliferation inhibition rate
Description: as §1, §2

[20] = MCF7, 72 h, read-out: MCF-7(IC50, nM)
[21] = Caco-2 cell line (21 days), bidirectional transport, Table 5
[22] = Sample-01, Caco-2, A-B, Sample-01
[23] = Sample-02, Caco-2, A-B, Sample-02
[24] = Mean, Caco-2, A-B, mean of two samples

CO[C@H]1C[C@H]2OC[C@@]2(OC(C)=O)[C@H]2[C@H](OC(=O)c3ccccc3)[C@]3(O)C[C@H](OC(=O)[C@H](O)[C@H](CC(C)C)NC(=O)OC(C)(C)C)C(C)=C([C@@H](OC(=O)N(C)C)C(=O)[C@]12C)C3(C)C [PCMI-25]
IC50 [1, 20]: 1.7 ± 0.08 nM | Papp B-A [2]: 32.58 10^−6 cm/s | Papp A→B [3, 21]: 8.25 ×10⁻⁶ cm/s | Papp A→B [3, 22]: 6.41 ×10⁻⁶ cm/s | Papp A→B [3, 23]: 9.92 ×10⁻⁶ cm/s | recovery [3, 24]: 71.2% | recovery [3, 22]: 63.9% | recovery [3, 23]: 78.5% | inhibition at 1 µM [4]: 78.4% | inhibition at 1 µM [5]: 82.9% | inhibition at 1 µM [6]: 80.4% | inhibition at 1 µM [7]: 90.2% | inhibition at 1 µM [8]: 97.7% | inhibition at 1 µM [9]: 89.8% | inhibition at 1 µM [10]: 94.8% | inhibition at 1 µM [11]: 78.3% | inhibition at 1 µM [12]: 101% | inhibition at 1 µM [13]: 87.3% | inhibition at 1 µM [14]: 90.9% | inhibition at 1 µM [15]: 92.5% | inhibition at 1 µM [16]: 69.5% | inhibition at 1 µM [17]: 80.7% | inhibition at 1 µM [18]: 89% | inhibition at 1 µM [19]: 71.8%

CO[C@H]1C(=O)[C@]2(C)CC[C@H]3OC[C@@]3(OC(C)=O)[C@H]2[C@H](OC(=O)c2ccccc2)[C@]2(O)C[C@H](OC(=O)[C@H](O)[C@H](CC(C)C)NC(=O)OC(C)(C)C)C(C)=C1C2(C)C [PCMI-42]
IC50 [1, 20]: 3.06 ± 0.08 nM | efflux ratio [2]: 5.12 | Papp B-A [2]: 38.57 10^−6 cm/s | Papp A→B [3, 21]: 7.54 ×10⁻⁶ cm/s | Papp A→B [3, 22]: 7.85 ×10⁻⁶ cm/s | Papp A→B [3, 23]: 6.49 ×10⁻⁶ cm/s | recovery [3, 24]: 74.2% | recovery [3, 22]: 81% | recovery [3, 23]: 67.3% | inhibition at 1 µM [4]: 79.5% | inhibition at 1 µM [5]: 87% | inhibition at 1 µM [6]: 82.9% | inhibition at 1 µM [7]: 92.8% | inhibition at 1 µM [8]: 97.6% | inhibition at 1 µM [9]: 97.8% | inhibition at 1 µM [10]: 95.6% | inhibition at 1 µM [11]: 66.1% | inhibition at 1 µM [12]: 99.3% | inhibition at 1 µM [13]: 88.2% | inhibition at 1 µM [14]: 94.3% | inhibition at 1 µM [15]: 94.8% | inhibition at 1 µM [16]: 77.6% | inhibition at 1 µM [17]: 84.3% | inhibition at 1 µM [18]: 104% | inhibition at 1 µM [19]: 78.3%

COC(=O)O[C@H]1C(=O)[C@]2(C)[C@@H](OC)C[C@H]3OC[C@@]3(OC(C)=O)[C@H]2[C@H](OC(=O)c2ccccc2)[C@]2(O)C[C@H](OC(=O)[C@H](O)[C@H](CC(C)C)NC(=O)OC(C)(C)C)C(C)=C1C2(C)C [PCMI-28]
IC50 [1, 20]: 2.9 ± 0.06 nM | Papp A-B [2]: 8.87 10^−6 cm/s | Papp B-A [2]: 33.26 10^−6 cm/s | Papp A→B [3, 24]: 9.02 ×10⁻⁶ cm/s | Papp A→B [3, 22]: 8.58 ×10⁻⁶ cm/s | Papp A→B [3, 23]: 9.46 ×10⁻⁶ cm/s | recovery [3, 24]: 70.8% | recovery [3, 22]: 64.8% | recovery [3, 23]: 76.8% | inhibition at 1 µM [4]: 84.3% | inhibition at 1 µM [5]: 85.7% | inhibition at 1 µM [6]: 84% | inhibition at 1 µM [7]: 92.2% | inhibition at 1 µM [8]: 96.9% | inhibition at 1 µM [9]: 103% | inhibition at 1 µM [10]: 95.6% | inhibition at 1 µM [11]: 81.1% | inhibition at 1 µM [12]: 99.7% | inhibition at 1 µM [13]: 89.1% | inhibition at 1 µM [14]: 92.6% | inhibition at 1 µM [15]: 97.5% | inhibition at 1 µM [16]: 72.5% | inhibition at 1 µM [17]: 85.8% | inhibition at 1 µM [19]: 74.1%

CO[C@H]1C[C@H]2OC[C@@]2(OC(C)=O)[C@H]2[C@H](OC(=O)c3ccccc3)[C@]3(O)C[C@H](OC(=O)[C@H](O)[C@@H](NC(=O)OC(C)(C)C)c4ccccc4)C(C)=C([C@@H](OC(=O)N(C)C)C(=O)[C@]12C)C3(C)C [PCMI-22]
IC50 [1, 20]: 1.58 ± 0.04 nM | efflux ratio [2]: 4.08 | Papp A-B [2]: 8.11 10^−6 cm/s | Papp B-A [2]: 33.11 10^−6 cm/s | Papp A→B [3, 24]: 8.69 ×10⁻⁶ cm/s | Papp A→B [3, 22]: 9 ×10⁻⁶ cm/s | Papp A→B [3, 23]: 8.38 ×10⁻⁶ cm/s | recovery [3, 24]: 89.4% | recovery [3, 22]: 92.4% | recovery [3, 23]: 86.4% | inhibition at 1 µM [4]: 81.1% | inhibition at 1 µM [5]: 87.1% | inhibition at 1 µM [6]: 80.9% | inhibition at 1 µM [7]: 92% | inhibition at 1 µM [8]: 97.5% | inhibition at 1 µM [9]: 85.7% | inhibition at 1 µM [10]: 96.3% | inhibition at 1 µM [11]: 81.1% | inhibition at 1 µM [12]: 102% | inhibition at 1 µM [13]: 87.9% | inhibition at 1 µM [14]: 92.2% | inhibition at 1 µM [15]: 95.5% | inhibition at 1 µM [16]: 69.9% | inhibition at 1 µM [17]: 86.5% | inhibition at 1 µM [18]: 87.7% | inhibition at 1 µM [19]: 74.7%

COC(=O)O[C@H]1C(=O)[C@]2(C)[C@@H](OC)C[C@H]3OC[C@@]3(OC(C)=O)[C@H]2[C@H](OC(=O)c2ccccc2)[C@]2(O)C[C@H](OC(=O)[C@H](O)[C@@H](NC(=O)OC(C)(C)C)c3ccccc3)C(C)=C1C2(C)C [PCMI-26]
IC50 ([1]; MCF7, MCF-7, exposure 72 hours, mean±SD of three independent experiments, read-out: MCF-7(IC50)): 1.4 ± 0.1 nM | efflux ratio [2]: 4.22 | Papp A-B [2]: 6.91 10^−6 cm/s | Papp B-A [2]: 29.18 10^−6 cm/s | Papp A→B [3, 24]: 8.75 ×10⁻⁶ cm/s | Papp A→B [3, 22]: 8.45 ×10⁻⁶ cm/s | Papp A→B [3, 23]: 9.06 ×10⁻⁶ cm/s | recovery [3, 24]: 81.4% | recovery [3, 22]: 80.9% | recovery [3, 23]: 82% | inhibition at 1 µM [4]: 76.3% | inhibition at 1 µM [5]: 86.2% | inhibition at 1 µM [6]: 79.8% | inhibition at 1 µM [7]: 89.2% | inhibition at 1 µM [8]: 96.8% | inhibition at 1 µM [9]: 95.5% | inhibition at 1 µM [10]: 95.8% | inhibition at 1 µM [11]: 81.1% | inhibition at 1 µM [12]: 101% | inhibition at 1 µM [13]: 88.8% | inhibition at 1 µM [14]: 91.4% | inhibition at 1 µM [15]: 89% | inhibition at 1 µM [16]: 66.2% | inhibition at 1 µM [17]: 86.4% | inhibition at 1 µM [18]: 94.2% | inhibition at 1 µM [19]: 69.7%

Source: US10253007B2, “Taxanes compounds, preparation method therefor, and uses thereof” (Jiangsu Tasly Diyi Pharmaceutical Co., Ltd., priority 2013, dated 2019)
